# Key:
# [1] = molecular target: T1, Phosphodiesterase PDE10A1 (Homo sapiens, UniProt Q9Y233); assay: enzyme inhibition panel at […] (Ricerca Biosciences), […] inhibition; type: biochemical
# T1 construct: gene PDE10A; PDE10A1
# [2] = molecular target: T2, Phosphodiesterase 10A (PDE10A) (Rattus norvegicus, UniProt Q9QYJ6); assay: [3H]TAK-063 saturation binding on rat brain sections (autoradiography); Kd […] NAc shell, […] CPu
# T2 construct: native PDE10A in rat brain sections
# T2 sequence (Q9QYJ6 1-794): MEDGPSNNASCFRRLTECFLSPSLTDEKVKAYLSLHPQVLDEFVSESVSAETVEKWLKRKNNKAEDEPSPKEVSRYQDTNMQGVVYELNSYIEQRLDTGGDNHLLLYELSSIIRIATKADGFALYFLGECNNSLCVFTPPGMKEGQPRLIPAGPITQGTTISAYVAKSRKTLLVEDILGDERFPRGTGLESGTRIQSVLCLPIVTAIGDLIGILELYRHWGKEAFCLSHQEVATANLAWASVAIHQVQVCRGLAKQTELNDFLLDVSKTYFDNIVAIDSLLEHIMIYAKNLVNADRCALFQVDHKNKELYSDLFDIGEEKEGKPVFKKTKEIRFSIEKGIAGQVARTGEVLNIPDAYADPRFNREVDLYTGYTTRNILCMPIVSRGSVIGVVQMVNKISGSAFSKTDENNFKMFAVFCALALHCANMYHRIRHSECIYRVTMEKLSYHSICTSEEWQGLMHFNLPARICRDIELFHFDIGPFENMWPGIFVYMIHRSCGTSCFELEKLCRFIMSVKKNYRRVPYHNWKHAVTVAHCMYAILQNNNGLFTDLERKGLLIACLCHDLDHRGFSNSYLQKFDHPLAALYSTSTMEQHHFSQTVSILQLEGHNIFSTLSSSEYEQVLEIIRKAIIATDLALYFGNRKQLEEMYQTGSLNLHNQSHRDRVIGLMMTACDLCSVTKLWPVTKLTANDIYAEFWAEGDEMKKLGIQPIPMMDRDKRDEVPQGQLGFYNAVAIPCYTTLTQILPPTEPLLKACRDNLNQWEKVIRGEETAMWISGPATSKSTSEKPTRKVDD
# T1 sequence (Q9Y233 1-779 isoform Q9Y233-1): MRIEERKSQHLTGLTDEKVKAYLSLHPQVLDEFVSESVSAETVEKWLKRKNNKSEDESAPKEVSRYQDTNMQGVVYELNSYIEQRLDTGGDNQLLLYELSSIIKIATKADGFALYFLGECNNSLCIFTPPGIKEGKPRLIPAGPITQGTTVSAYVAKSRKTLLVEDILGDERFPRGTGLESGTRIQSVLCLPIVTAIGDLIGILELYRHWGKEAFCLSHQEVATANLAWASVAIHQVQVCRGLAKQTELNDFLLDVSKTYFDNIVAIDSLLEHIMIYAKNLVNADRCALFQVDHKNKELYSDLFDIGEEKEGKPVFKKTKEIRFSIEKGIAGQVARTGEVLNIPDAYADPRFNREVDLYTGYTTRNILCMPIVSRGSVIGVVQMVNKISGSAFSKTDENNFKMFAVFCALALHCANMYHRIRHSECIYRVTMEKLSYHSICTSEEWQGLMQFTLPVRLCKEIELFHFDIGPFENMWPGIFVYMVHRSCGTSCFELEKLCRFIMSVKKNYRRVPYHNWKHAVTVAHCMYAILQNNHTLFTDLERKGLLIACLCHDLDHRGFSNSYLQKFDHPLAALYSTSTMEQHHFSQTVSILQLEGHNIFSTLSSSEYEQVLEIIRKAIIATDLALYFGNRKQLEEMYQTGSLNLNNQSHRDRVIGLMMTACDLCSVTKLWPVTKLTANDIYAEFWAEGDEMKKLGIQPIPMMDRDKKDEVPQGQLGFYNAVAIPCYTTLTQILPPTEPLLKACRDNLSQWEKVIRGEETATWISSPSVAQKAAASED
structure (smiles),measurement,setting,value
"COc1cn(-c2ccc(-n3cccn3)cc2F)nc(-c2ccnn2-c2ccccc2)c1=O [TAK-063, 1-[2-fluoro-4-(1H-pyrazol-1-yl)phenyl]-5-methoxy-3-(1-phenyl-1H-pyrazol-5-yl)-pyridazin-4(1H)-one]",inhibition at 10 µM,[1],101%
same,Kd,[2],2.6 nM
